Patent publication US20260176320A1, “MODULATORS OF G-PROTEIN COUPLED RECEPTORS” (priority 2018, published 2026)
Read-outs that look alike come from different tables or passages of the source. Numbered stars: 1 amine (or outer) side, 2 acyl side, 3 side chain; on linkers, the order of the positions; unused ones are H or OH. Square brackets hold non-standard residues; d marks the D form. Side chains are listed from the residue outwards. Peptide text beside a SMILES is read from it. * marks the point of attachment. γGlu = O=C(O)[C@H](CCC(=O)[*:2])N[*:1]; X2 = O=C(CSCC(=O)*)NCCN1C(=O)CSC1=O; Palmitoyl = CCCCCCCCCCCCCCCC(=O)*; Aib = CC(C)(N)C(=O)O

Columns and labels:
[1] = target: GLP-1R (Homo sapiens, UniProt P43220); test: HitHunter cAMP assay (GLP-1R); type: cell-based; conditions: cAMP; for Emax: read-out: (Emax) GLP-1R
Outline: (§1)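 Duplicate 22-point, 2-fold agonist titrations applied to receptor-expressing suspension cells in IBMX-containing HBSS; 30 min RT stimulation. Read: luminescent cAMP immunocompetition after O/N dark incubation.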

[2] = target: T1, GIP-R (Homo sapiens, UniProt P48546); test: HitHunter cAMP assay (GIP-R); type: cell-based; conditions: cAMP; for Emax: read-out: (Emax) GIP-R
T1 sequence (P48546 22-466): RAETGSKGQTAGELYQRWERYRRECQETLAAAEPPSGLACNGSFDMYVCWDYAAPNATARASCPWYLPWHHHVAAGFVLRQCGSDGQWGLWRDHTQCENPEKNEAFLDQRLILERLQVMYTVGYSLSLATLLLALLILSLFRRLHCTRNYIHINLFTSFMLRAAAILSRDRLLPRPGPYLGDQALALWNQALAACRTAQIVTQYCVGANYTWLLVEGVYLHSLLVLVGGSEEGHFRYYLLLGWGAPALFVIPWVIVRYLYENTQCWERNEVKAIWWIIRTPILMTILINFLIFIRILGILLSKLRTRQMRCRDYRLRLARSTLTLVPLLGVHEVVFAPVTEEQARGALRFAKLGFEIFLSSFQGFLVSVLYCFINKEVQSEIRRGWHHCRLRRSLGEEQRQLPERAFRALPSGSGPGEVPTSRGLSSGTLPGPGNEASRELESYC
Outline: as §1

[3] = Table 3A, read-out: EC50 GLP-1R/nM
[4] = Table 3A, read-out: EC50 GIP-R/nM

Chain of GLP-1R (P43220 24-463): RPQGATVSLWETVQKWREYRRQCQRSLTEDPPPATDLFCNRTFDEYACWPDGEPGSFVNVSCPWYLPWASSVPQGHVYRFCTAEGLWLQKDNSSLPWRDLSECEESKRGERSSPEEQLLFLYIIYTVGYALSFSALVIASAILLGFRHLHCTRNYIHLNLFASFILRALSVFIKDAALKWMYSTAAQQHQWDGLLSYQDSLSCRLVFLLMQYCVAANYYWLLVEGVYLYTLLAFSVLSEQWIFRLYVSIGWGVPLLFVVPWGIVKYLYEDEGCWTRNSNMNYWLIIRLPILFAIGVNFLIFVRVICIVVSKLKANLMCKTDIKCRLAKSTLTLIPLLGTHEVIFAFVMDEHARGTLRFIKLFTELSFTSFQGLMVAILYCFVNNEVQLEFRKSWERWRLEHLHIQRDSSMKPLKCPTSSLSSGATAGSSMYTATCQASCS

CCCCCCCCCCCCCCCC(=O)N[C@@H](CCC(=O)NCCCC[C@H](NC(=O)[C@H](CC(=O)O)NC(=O)[C@H](CO)NC(=O)[C@@H](NC(=O)[C@H](Cc1ccccc1)NC(=O)[C@@H](NC(=O)CNC(=O)[C@H](CCC(=O)O)NC(=O)CSCC(=O)NCCN1C(=O)CSC1=O)[C@@H](C)O)[C@@H](C)O)C(=O)N[C@@H](CO)C(=O)N[C@H](C(=O)N[C@@H](Cc1ccc(O)cc1)C(=O)N[C@@H](CC(C)C)C(=O)N[C@@H](CC(=O)O)C(=O)N[C@@H](CCCCN)C(=O)N[C@@H](CCC(N)=O)C(=O)N[C@@H](C)C(=O)N[C@@H](C)C(=O)NC(C)(C)C(=O)N[C@@H](CCC(=O)O)C(=O)N[C@@H](Cc1ccccc1)C(=O)N[C@H](C(=O)N[C@@H](CC(N)=O)C(=O)N[C@@H](Cc1c[nH]c2ccccc12)C(=O)N[C@@H](CC(C)C)C(=O)N[C@@H](CC(C)C)C(=O)N[C@@H](C)C(=O)NCC(=O)NCC(=O)N1CCC[C@H]1C(=O)N[C@@H](CO)C(=O)N[C@@H](CO)C(=O)NCC(=O)N[C@@H](C)C(=O)N1CCC[C@H]1C(=O)N1CCC[C@H]1C(=O)N1CCC[C@H]1C(=O)N[C@@H](CO)C(=O)N[C@@H](CCCCN)C(N)=O)C(C)C)[C@@H](C)CC)C(=O)O [Compound 201] (X2-EGTFTSDK([γGlu-Palmitoyl])SIYLDKQAA[Aib]EFVNWLLAGGPSSGAPPPSK-NH2)
Emax ([1]; Table 3A): 99%
EC50 [1, 3]: 1 to 10 nM
Emax ([2]; Table 3A): 105%
EC50 [2, 4]: 1 to 10 nM

CC[C@H](C)[C@H](NC(=O)[C@H](CO)NC(=O)[C@H](Cc1ccc(O)cc1)NC(=O)[C@H](CC(=O)O)NC(=O)[C@H](CO)NC(=O)[C@@H](NC(=O)[C@H](Cc1ccccc1)NC(=O)[C@@H](NC(=O)CNC(=O)[C@H](CCC(=O)O)NC(=O)CSCC(=O)NCCN1C(=O)CC(C)CC1=O)[C@@H](C)O)[C@@H](C)O)C(=O)N[C@@H](Cc1ccc(O)cc1)C(=O)N[C@@H](CC(C)C)C(=O)N[C@@H](CC(=O)O)C(=O)N[C@@H](CCCCN)C(=O)N[C@@H](CCC(N)=O)C(=O)N[C@@H](C)C(=O)N[C@@H](C)C(=O)NC(C)(C)C(=O)N[C@@H](CCC(=O)O)C(=O)N[C@@H](Cc1ccccc1)C(=O)N[C@H](C(=O)N[C@@H](CC(N)=O)C(=O)N[C@@H](Cc1c[nH]c2ccccc12)C(=O)N[C@@H](CC(C)C)C(=O)N[C@@H](CC(C)C)C(=O)N[C@@H](C)C(=O)NCC(=O)NCC(=O)N1CCC[C@H]1C(=O)N[C@@H](CO)C(=O)N[C@@H](CO)C(=O)NCC(=O)N[C@@H](C)C(=O)N1CCC[C@H]1C(=O)N1CCC[C@H]1C(=O)N1CCC[C@H]1C(=O)N[C@@H](CO)C(=O)N[C@@H](CCCCN)C(N)=O)C(C)C [Compound 113]
EC50 ([1]; EC50 GLP-1R/nM, Table 3): 10 to 100 nM
EC50 ([1]; EC50 GLP-1R/nM, Table 3A): 10 to 100 nM
Emax ([1]; Table 3): 89%
Emax ([1]; Table 3A): 89%
EC50 ([2]; EC50 GIP-R/nM, Table 3): 10 to 100 nM
EC50 ([2]; EC50 GIP-R/nM, Table 3A): 10 to 100 nM
Emax ([2]; Table 3): 52%
Emax ([2]; Table 3A): 52%

CCCCCCCCCCCCCCCC(=O)N[C@@H](CCC(=O)NCCCC[C@H](NC(=O)[C@H](CO)NC(=O)[C@@H]1CCCN1C(=O)[C@@H]1CCCN1C(=O)[C@@H]1CCCN1C(=O)[C@H](C)NC(=O)CNC(=O)[C@H](CO)NC(=O)[C@H](CO)NC(=O)[C@@H]1CCCN1C(=O)CNC(=O)CNC(=O)[C@H](C)NC(=O)[C@H](CC(C)C)NC(=O)[C@H](CC(C)C)NC(=O)[C@H](Cc1c[nH]c2ccccc12)NC(=O)[C@H](CC(N)=O)NC(=O)[C@@H](NC(=O)[C@H](Cc1ccccc1)NC(=O)[C@H](CCC(=O)O)NC(=O)C(C)(C)NC(=O)[C@H](C)NC(=O)[C@H](C)NC(=O)[C@H](CCC(N)=O)NC(=O)[C@H](CCCCN)NC(=O)[C@H](CC(=O)O)NC(=O)[C@H](CC(C)C)NC(=O)[C@H](Cc1ccc(O)cc1)NC(=O)[C@@H](NC(=O)[C@H](CO)NC(=O)[C@H](Cc1ccc(O)cc1)NC(=O)[C@H](CC(=O)O)NC(=O)[C@H](CO)NC(=O)[C@@H](NC(=O)[C@H](Cc1ccccc1)NC(=O)[C@@H](NC(=O)CNC(=O)[C@H](CCC(=O)O)NC(=O)CSCC(=O)NCCN1C(=O)CC(N)C1=O)[C@@H](C)O)[C@@H](C)O)[C@@H](C)CC)C(C)C)C(N)=O)C(=O)O (mixture of isomers) [Compound 67]
Emax ([1]; Table 3): 100%
EC50 ([1]; Table 3, read-out: EC50 GLP-1R/nM): 0.1 to 1 nM
Emax ([1]; Table 3A): 100%
EC50 [1, 3]: 0.1 to 1 nM
Emax ([2]; Table 3): 65%
EC50 ([2]; Table 3, read-out: EC50 GIP-R/nM): 1 to 10 nM
Emax ([2]; Table 3A): 65%
EC50 [2, 4]: 1 to 10 nM

CCCCCCCCCCCCCCCC(=O)N[C@@H](CCC(=O)NCCCC[C@H](NC(=O)[C@H](CO)NC(=O)[C@@H]1CCCN1C(=O)[C@@H]1CCCN1C(=O)[C@@H]1CCCN1C(=O)[C@H](C)NC(=O)CNC(=O)[C@H](CO)NC(=O)[C@H](CO)NC(=O)[C@@H]1CCCN1C(=O)CNC(=O)CNC(=O)[C@H](C)NC(=O)[C@H](CC(C)C)NC(=O)[C@H](CC(C)C)NC(=O)[C@H](Cc1c[nH]c2ccccc12)NC(=O)[C@H](CC(N)=O)NC(=O)[C@@H](NC(=O)[C@H](Cc1ccccc1)NC(=O)[C@H](CCC(=O)O)NC(=O)C(C)(C)NC(=O)[C@H](C)NC(=O)[C@H](C)NC(=O)[C@H](CCC(N)=O)NC(=O)[C@H](CCCCN)NC(=O)[C@H](CC(=O)O)NC(=O)[C@H](CC(C)C)NC(=O)[C@H](Cc1ccc(O)cc1)NC(=O)[C@@H](NC(=O)[C@H](CO)NC(=O)[C@H](Cc1ccc(O)cc1)NC(=O)[C@H](CC(=O)O)NC(=O)[C@H](CO)NC(=O)[C@@H](NC(=O)[C@H](Cc1ccccc1)NC(=O)[C@@H](NC(=O)CNC(=O)[C@H](CCC(=O)O)NC(=O)CSCC(=O)NCCN1C(=O)[C@H]2CCC[C@H]2C1=O)[C@@H](C)O)[C@@H](C)O)[C@@H](C)CC)C(C)C)C(N)=O)C(=O)O [Compound 103]
EC50 ([1]; EC50 GLP-1R/nM, Table 3): 10 to 100 nM
EC50 ([1]; EC50 GLP-1R/nM, Table 3A): 10 to 100 nM
Emax ([1]; Table 3): 95%
Emax ([1]; Table 3A): 95%
EC50 ([2]; EC50 GIP-R/nM, Table 3): 1 to 10 nM
EC50 ([2]; EC50 GIP-R/nM, Table 3A): 1 to 10 nM
Emax ([2]; Table 3): 68%
Emax ([2]; Table 3A): 68%

CCCCCCCCCCCCCCCC(=O)N[C@@H](CCC(=O)NCCCC[C@H](NC(=O)[C@H](CO)NC(=O)[C@@H]1CCCN1C(=O)[C@@H]1CCCN1C(=O)[C@@H]1CCCN1C(=O)[C@H](C)NC(=O)CNC(=O)[C@H](CO)NC(=O)[C@H](CO)NC(=O)[C@@H]1CCCN1C(=O)CNC(=O)CNC(=O)[C@H](C)NC(=O)[C@H](CC(C)C)NC(=O)[C@H](CC(C)C)NC(=O)[C@H](Cc1c[nH]c2ccccc12)NC(=O)[C@H](CC(N)=O)NC(=O)[C@@H](NC(=O)[C@H](Cc1ccccc1)NC(=O)[C@H](CCC(=O)O)NC(=O)C(C)(C)NC(=O)[C@H](C)NC(=O)[C@H](C)NC(=O)[C@H](CCC(N)=O)NC(=O)[C@H](CCCCN)NC(=O)[C@H](CC(=O)O)NC(=O)[C@H](CC(C)C)NC(=O)[C@H](Cc1ccc(O)cc1)NC(=O)[C@@H](NC(=O)[C@H](CO)NC(=O)[C@H](Cc1ccc(O)cc1)NC(=O)[C@H](CC(=O)O)NC(=O)[C@H](CO)NC(=O)[C@@H](NC(=O)[C@H](Cc1ccccc1)NC(=O)[C@@H](NC(=O)CNC(=O)[C@H](CCC(=O)O)NC(=O)CSCC(=O)NCCN1Cc2ccccc2CC1=O)[C@@H](C)O)[C@@H](C)O)[C@@H](C)CC)C(C)C)C(N)=O)C(=O)O [Compound 270]
EC50 ([1]; EC50 GLP-1R/nM, Table 3A): 1 to 10 nM
Emax ([1]; Table 3A): 90%
EC50 ([2]; EC50 GIP-R/nM, Table 3A): 1 to 10 nM
Emax ([2]; Table 3A): 90%

CC[C@H](C)[C@H](NC(=O)[C@H](CO)NC(=O)[C@H](Cc1ccc(O)cc1)NC(=O)[C@H](CC(=O)O)NC(=O)[C@H](CO)NC(=O)[C@@H](NC(=O)[C@H](Cc1ccccc1)NC(=O)[C@@H](NC(=O)CNC(=O)[C@H](CCC(=O)O)NC(=O)CC(=O)NCCN1C(=O)c2ccc(C)cc2C1=O)[C@@H](C)O)[C@@H](C)O)C(=O)N[C@@H](Cc1ccc(O)cc1)C(=O)N[C@@H](CC(C)C)C(=O)N[C@@H](CC(=O)O)C(=O)N[C@@H](CCCCN)C(=O)N[C@@H](CCC(N)=O)C(=O)N[C@@H](C)C(=O)N[C@@H](C)C(=O)NC(C)(C)C(=O)N[C@@H](CCC(=O)O)C(=O)N[C@@H](Cc1ccccc1)C(=O)N[C@H](C(=O)N[C@@H](CC(N)=O)C(=O)N[C@@H](Cc1c[nH]c2ccccc12)C(=O)N[C@@H](CC(C)C)C(=O)N[C@@H](CC(C)C)C(=O)N[C@@H](C)C(=O)NCC(=O)NCC(=O)N1CCC[C@H]1C(=O)N[C@@H](CO)C(=O)N[C@@H](CO)C(=O)NCC(=O)N[C@@H](C)C(=O)N1CCC[C@H]1C(=O)N1CCC[C@H]1C(=O)N1CCC[C@H]1C(=O)N[C@@H](CO)C(=O)N[C@@H](CCCCN)C(N)=O)C(C)C [Compound 126]
EC50 ([1]; EC50 GLP-1R/nM, Table 3): 10 to 100 nM
EC50 ([1]; EC50 GLP-1R/nM, Table 3A): 10 to 100 nM
Emax ([1]; Table 3): 84%
Emax ([1]; Table 3A): 84%
EC50 ([2]; EC50 GIP-R/nM, Table 3): 10 to 100 nM
EC50 ([2]; EC50 GIP-R/nM, Table 3A): 10 to 100 nM
Emax ([2]; Table 3): 42 to 51%
Emax ([2]; Table 3A): 42 to 51%
